From ChEMBL document CHEMBL3885861, “Open TG-GATES”

Organism: Rattus norvegicus
Assay: Open TG-GATES - Regimen: Daily Repeat
Format: toxicity, organism-based, Sprague-Dawley
Set-up: regimen Daily Repeat, gender Male, age 6 weeks
Details: in vivo, po, 0 mg/kg, route gavage, dose level Control; for APTT / Bas / Eos / Fbg / Hb / Ht / Lym / MCH / MCHC / MCV / Mono / Neu / PT / Plat / RBC / Ret / WBC: tissue Blood; for KIDNEY_L / KIDNEY_R / KIDNEY_TOTAL: tissue Kidney; for LIVER: tissue Liver; for A/G / ALP / ALT / AST / BUN / CRE / Ca / Cl / DBIL / GLC / IP / K / LDH / Na / PL / RALB / TBIL / TC / TG / TP / gamma-GTP: tissue Plasma

CCC1(c2ccccc2)C(=O)NC(=O)NC1=O [PHENOBARBITAL]
TERMINAL_BW (72 h, time 3 day): 222.1 g
APTT (72 h, time 3 day): 15.6 s
Bas (72 h, time 3 day): 0%
Eos (72 h, time 3 day): 0.6%
Fbg (72 h, time 3 day): 225 mg/dL
Hb (72 h, time 3 day): 13.2 g/dL
Ht (72 h, time 3 day): 39.4%
Lym (72 h, time 3 day): 76.8%
MCH (72 h, time 3 day): 22.4 pg
MCHC (72 h, time 3 day): 33.6%
MCV (72 h, time 3 day): 66.9 fL
Mono (72 h, time 3 day): 7.4%
Neu (72 h, time 3 day): 15.2%
PT (72 h, time 3 day): 12 s
Plat (72 h, time 3 day): 126.6 x10_4/uL
RBC (72 h, time 3 day): 589.6 x10_4/ul
Ret (72 h, time 3 day): 7.7%
WBC (72 h, time 3 day): 129.8 x10_2/uL
KIDNEY_L (72 h, time 3 day): 0.9 g
KIDNEY_R (72 h, time 3 day): 1 g
KIDNEY_TOTAL (72 h, time 3 day): 1.9 g
LIVER (72 h, time 3 day): 11.2 g
A/G (72 h, time 3 day): 1.6
ALP (72 h, time 3 day): 912.8 IU/L
ALT (72 h, time 3 day): 34 IU/L
AST (72 h, time 3 day): 61.4 IU/L
BUN (72 h, time 3 day): 16 mg/dL
CRE (72 h, time 3 day): 0.5 mg/dL
Ca (72 h, time 3 day): 10.8 mg/dL
Cl (72 h, time 3 day): 106.6 meq/L
DBIL (72 h, time 3 day): 0.01 mg/dL
GLC (72 h, time 3 day): 201.8 mg/dL
IP (72 h, time 3 day): 7.9 mg/dL
K (72 h, time 3 day): 4.9 meq/L
LDH (72 h, time 3 day): 84.2 IU/L
Na (72 h, time 3 day): 139.4 meq/L
PL (72 h, time 3 day): 158.6 mg/dL
RALB (72 h, time 3 day): 3.6 g/dL
TBIL (72 h, time 3 day): 0.4 mg/dL
TC (72 h, time 3 day): 80.2 mg/dL
TG (72 h, time 3 day): 142.6 mg/dL
TP (72 h, time 3 day): 5.9 g/dL
gamma-GTP (72 h, time 3 day): 1.8 IU/L
TERMINAL_BW ([…], time 7 day): 254.1 g
TERMINAL_BW ([…], time 14 day): 296 g
TERMINAL_BW ([…], time 28 day): 396.2 g
APTT ([…], time 7 day): 15.9 s
Bas ([…], time 7 day): 0%
Eos ([…], time 7 day): 0.8%
Fbg ([…], time 7 day): 224.8 mg/dL
Hb ([…], time 7 day): 14.2 g/dL
Ht ([…], time 7 day): 42.7%
Lym ([…], time 7 day): 82.2%
MCH ([…], time 7 day): 21.9 pg
MCHC ([…], time 7 day): 33.4%
MCV ([…], time 7 day): 65.5 fL
Mono ([…], time 7 day): 6.8%
Neu ([…], time 7 day): 10.4%
PT ([…], time 7 day): 11.9 s
Plat ([…], time 7 day): 110.9 x10_4/uL
RBC ([…], time 7 day): 652 x10_4/ul
Ret ([…], time 7 day): 6.1%
WBC ([…], time 7 day): 125.6 x10_2/uL
APTT ([…], time 14 day): 16.5 s
Bas ([…], time 14 day): 0%
Eos ([…], time 14 day): 0.4%
Fbg ([…], time 14 day): 241.4 mg/dL
Hb ([…], time 14 day): 14.7 g/dL
Ht ([…], time 14 day): 44.1%
Lym ([…], time 14 day): 88.2%
MCH ([…], time 14 day): 20.6 pg
MCHC ([…], time 14 day): 33.4%
MCV ([…], time 14 day): 61.9 fL
Mono ([…], time 14 day): 3.6%
Neu ([…], time 14 day): 7.8%
PT ([…], time 14 day): 11.6 s
Plat ([…], time 14 day): 113.2 x10_4/uL
RBC ([…], time 14 day): 713.2 x10_4/ul
Ret ([…], time 14 day): 5.1%
WBC ([…], time 14 day): 153.7 x10_2/uL
APTT ([…], time 28 day): 17 s
Bas ([…], time 28 day): 0%
Eos ([…], time 28 day): 0.8%
Fbg ([…], time 28 day): 236 mg/dL
Hb ([…], time 28 day): 14.8 g/dL
Ht ([…], time 28 day): 44.6%
Lym ([…], time 28 day): 84.4%
MCH ([…], time 28 day): 19.3 pg
MCHC ([…], time 28 day): 33.2%
MCV ([…], time 28 day): 58.2 fL
Mono ([…], time 28 day): 5.6%
Neu ([…], time 28 day): 9.4%
PT ([…], time 28 day): 12 s
Plat ([…], time 28 day): 109 x10_4/uL
RBC ([…], time 28 day): 766 x10_4/ul
Ret ([…], time 28 day): 2.6%
WBC ([…], time 28 day): 129.1 x10_2/uL
KIDNEY_L ([…], time 7 day): 1 g
KIDNEY_R ([…], time 7 day): 1 g
KIDNEY_TOTAL ([…], time 7 day): 2.1 g
KIDNEY_L ([…], time 14 day): 1.1 g
KIDNEY_R ([…], time 14 day): 1.1 g
KIDNEY_TOTAL ([…], time 14 day): 2.2 g
KIDNEY_L ([…], time 28 day): 1.4 g
KIDNEY_R ([…], time 28 day): 1.4 g
KIDNEY_TOTAL ([…], time 28 day): 2.8 g
LIVER ([…], time 7 day): 12.4 g
LIVER ([…], time 14 day): 13.5 g
LIVER ([…], time 28 day): 16.7 g
A/G ([…], time 7 day): 1.5
ALP ([…], time 7 day): 1114.2 IU/L
ALT ([…], time 7 day): 32 IU/L
AST ([…], time 7 day): 62 IU/L
BUN ([…], time 7 day): 19.2 mg/dL
CRE ([…], time 7 day): 0.5 mg/dL
Ca ([…], time 7 day): 10.9 mg/dL
Cl ([…], time 7 day): 104.6 meq/L
DBIL ([…], time 7 day): 0.054 mg/dL
GLC ([…], time 7 day): 206.4 mg/dL
IP ([…], time 7 day): 7.9 mg/dL
K ([…], time 7 day): 4.9 meq/L
LDH ([…], time 7 day): 99.8 IU/L
Na ([…], time 7 day): 139.4 meq/L
PL ([…], time 7 day): 158.2 mg/dL
RALB ([…], time 7 day): 3.5 g/dL
TBIL ([…], time 7 day): 0.3 mg/dL
TC ([…], time 7 day): 73 mg/dL
TG ([…], time 7 day): 150 mg/dL
TP ([…], time 7 day): 5.9 g/dL
gamma-GTP ([…], time 7 day): 1.4 IU/L
A/G ([…], time 14 day): 1.5
ALP ([…], time 14 day): 764.6 IU/L
ALT ([…], time 14 day): 31.4 IU/L
AST ([…], time 14 day): 63.4 IU/L
BUN ([…], time 14 day): 19 mg/dL
CRE ([…], time 14 day): 0.6 mg/dL
Ca ([…], time 14 day): 10.6 mg/dL
Cl ([…], time 14 day): 105.4 meq/L
DBIL ([…], time 14 day): 0.002 mg/dL
GLC ([…], time 14 day): 207.8 mg/dL
IP ([…], time 14 day): 8.4 mg/dL
K ([…], time 14 day): 4.5 meq/L
LDH ([…], time 14 day): 102.4 IU/L
Na ([…], time 14 day): 141.4 meq/L
PL ([…], time 14 day): 159.4 mg/dL
RALB ([…], time 14 day): 3.8 g/dL
TBIL ([…], time 14 day): 0.2 mg/dL
TC ([…], time 14 day): 75.4 mg/dL
TG ([…], time 14 day): 138.6 mg/dL
TP ([…], time 14 day): 6.3 g/dL
gamma-GTP ([…], time 14 day): 0.8 IU/L
A/G ([…], time 28 day): 1.5
ALP ([…], time 28 day): 596.8 IU/L
ALT ([…], time 28 day): 29.6 IU/L
AST ([…], time 28 day): 56.2 IU/L
BUN ([…], time 28 day): 20 mg/dL
CRE ([…], time 28 day): 0.4 mg/dL
Ca ([…], time 28 day): 10.4 mg/dL
Cl ([…], time 28 day): 106.4 meq/L
DBIL ([…], time 28 day): 0.006 mg/dL
GLC ([…], time 28 day): 201 mg/dL
IP ([…], time 28 day): 8 mg/dL
K ([…], time 28 day): 4.5 meq/L
LDH ([…], time 28 day): 86 IU/L
Na ([…], time 28 day): 140.4 meq/L
PL ([…], time 28 day): 165.8 mg/dL
RALB ([…], time 28 day): 3.9 g/dL
TBIL ([…], time 28 day): 0.3 mg/dL
TC ([…], time 28 day): 76.4 mg/dL
TG ([…], time 28 day): 213.2 mg/dL
TP ([…], time 28 day): 6.5 g/dL
gamma-GTP ([…], time 28 day): 1.4 IU/L
